Test results: PMC2789237 (Analytical Biochemistry, 2010)

Legend:
[1] = molecular target: T1, pteridine reductase 1 (TbPTR1) (Trypanosoma brucei, UniProt O76290); experiment: cocrystal structure of ternary complex; cyt c-coupled enzyme inhibition assay; assay type: biochemical
T1 construct: gene PTR1; N-terminal hexahistidine-tagged protein
T1 sequence (O76290 1-268): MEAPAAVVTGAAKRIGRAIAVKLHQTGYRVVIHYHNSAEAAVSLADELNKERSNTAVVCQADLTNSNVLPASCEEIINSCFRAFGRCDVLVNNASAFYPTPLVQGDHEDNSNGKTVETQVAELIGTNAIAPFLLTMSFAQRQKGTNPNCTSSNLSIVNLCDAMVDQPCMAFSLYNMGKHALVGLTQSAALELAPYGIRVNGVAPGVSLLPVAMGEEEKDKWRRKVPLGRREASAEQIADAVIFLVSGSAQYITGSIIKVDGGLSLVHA

[2] = molecular target: T1, pteridine reductase 1 (TbPTR1); experiment: cocrystal structure of ternary complex with DDD00066641; assay type: binding
[3] = substrate: NC(=O)C1=CN([C@@H]2O[C@H](COP(=O)(O)OP(=O)(O)OC[C@H]3O[C@@H](n4cnc5c(N)ncnc54)[C@H](OP(=O)(O)O)[C@@H]3O)[C@@H](O)[C@H]2O)C=CC1; experiment: HPLC enzyme kinetics (Km app, data not shown); assay type: biochemical, Trypanosoma brucei; settings: varied: cofactor
[4] = substrate: C[C@H](O)[C@H](O)C1=Nc2c(nc(N)[nH]c2=O)NC1; experiment: HPLC enzyme kinetics (Km app), with substrate inhibition; assay type: biochemical, Trypanosoma brucei; settings: NADPH

Cc1ccc(-c2ccc3nc(N)nc(N)c3c2)cc1 [DDD00066641, 6-p-tolylquinazoline-2,4-diamine]
Ki [1]: 3 ± 0.8 nM

NC(=O)c1ccc[n+]([C@@H]2O[C@H](COP(=O)(O)OP(=O)(O)OC[C@H]3O[C@@H](n4cnc5c(N)ncnc54)[C@H](OP(=O)(O)O)[C@@H]3O)[C@@H](O)[C@H]2O)c1 [NADP+]
cocrystal structure of ternary complex with DDD00066641 [2]: The structure of the ternary complex of TbPTR1 with this ligand and the cofactor NADP^+ was obtained by cocrystallization

B1: pteridine reductase 1 (TbPTR1) (Trypanosoma brucei brucei) (protein)
chain: T1 sequence (O76290 1-268)
notes: N-terminal hexahistidine-tagged protein
Km [3]: 1.6 ± 0.1 µM
Km [4]: 0.025 ± 0.0067 µM
